The data set can be described thus: recombinant UMI read abundance after kanamycin selection (control-corrected) (log10(CPM+1)); higher = more efficient recombination; extreme values may be limits of the assay; sequences stand for … in AGTGCAGAGAAAATCGGCCAGTTTTCTCTGCCTGCAGTCCGCATGCCGTGGGACCCCTTGGGTTCTAACCTGTTGCCTAGATTTATGCAGCGGACTGCCTTTCTCCCAAAGTGATAAACCGG…AGGTTGGTTTCACT; site = the 11-nt donor. The method in brief: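 After plating on IPTG (0.07 mM) plus kanamycin, or unselected, in two replicates, recombinant UMIs were PCR-amplified across the donor–target junction and sequenced. The cells were Escherichia coli co-electroporated with a UMI-tagged donor and donor-binding-loop pair library and a target plasmid with a fixed target and T7-inducible IS621 bridge recombinase. Values are log10(CPM+1), with CPM averaged over replicates and scaled by control-derived factors.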
In the case of “AGGTAATCATGGACCGGTTTTCCCGGTAATCCGTATTTGAG (site AGGTAATCTCT)”, the “recombinant UMI read abundance (log10)” value was 2.83.
Then “AGGTACACATGGACCGGTTTTCCCGGTAATCCGTATTTGCA (site AGGAAGACTTG)”, with 0.
As for “AGGTACACATGGACCGGTTTTCCCGGTAATCCGTATTTGCA (site AGGTACACTTG)”, the figure is 2.46.
For “AGGTCAACATGGACCGGTTTTCCCGGTAATCCGTATTTGAT (site AGGTCAACTAT)”, the “recombinant UMI read abundance (log10)” value stood at 0.075.
Then “AGGTCCCCATGGACCGGTTTTCCCGGTAATCCGTATTTGTG (site AGGTACCCTCA)”, with 0.0207.
Then “AGGTCCCCATGGACCGGTTTTCCCGGTAATCCGTATTTGTG (site AGGTCCCCTCA)”, with 0.0562; and “AGGTCCCCATGGACCGGTTTTCCCGGTAATCCGTATTTGTG (site AGGTGCCCTCA)”, with 0.0373; and “AGGTCCCCATGGACCGGTTTTCCCGGTAATCCGTATTTGTG (site AGGTTCCCTCA)”, with 0.00496.
Regarding “AGGTCCTCATGGACCGGTTTTCCCGGTAATCCGTATTTGGG (site AGGTCCTCTCC)”, the “recombinant UMI read abundance (log10)” value was 0.0176.
As for “AGGTGACCATGGACCGGTTTTCCCGGTAATCCGTATTTGCC (site AGGTGACCTGG)”, the “recombinant UMI read abundance (log10)” value is 0.
Consider “AGGTGCACATGGACCGGTTTTCCCGGTAATCCGTATTTGAA (site AGGTGCACTTT)”, for which the “recombinant UMI read abundance (log10)” value was found to be 0.73.
Then “AGGTGCCCATGGACCGGTTTTCCCGGTAATCCGTATTTGTG (site AGGTACCCTCA)”, with 0.015.
On to “AGGTGCCCATGGACCGGTTTTCCCGGTAATCCGTATTTGTG (site AGGTCCCCTCA)”, for which the “recombinant UMI read abundance (log10)” value stood at 0.0213.
For the sequence “AGGTGCCCATGGACCGGTTTTCCCGGTAATCCGTATTTGTG (site AGGTGCCCTCA)”, the “recombinant UMI read abundance (log10)” value was 0.0128.
As for “AGGTGCCCATGGACCGGTTTTCCCGGTAATCCGTATTTGTG (site AGGTTCCCTCA)”, the figure is 0.755.
With “AGGTGGTCATGGACCGGTTTTCCCGGTAATCCGTATTTGCA (site AGGTGGTCTTG)”, the “recombinant UMI read abundance (log10)” value came out at 2.62.
Then “AGGTTCCCATGGACCGGTTTTCCCGGTAATCCGTATTTGAG (site AGGTTCCCTCA)”, with 0; and “AGGTTCCCATGGACCGGTTTTCCCGGTAATCCGTATTTGAG (site AGGTTCCCTCC)”, with 0.0175; and “AGGTTCCCATGGACCGGTTTTCCCGGTAATCCGTATTTGAG (site AGGTTCCCTCG)”, with 0.00792.
Then “AGGTTCCCATGGACCGGTTTTCCCGGTAATCCGTATTTGAG (site AGGTTCCCTCT)”, with 0.00255; and “AGGTTCCCATGGACCGGTTTTCCCGGTAATCCGTATTTGTC (site AGGTTCCCTAA)”, with 0.0146.
Consider “AGGTTCCCATGGACCGGTTTTCCCGGTAATCCGTATTTGTC (site AGGTTCCCTCA)”, for which the “recombinant UMI read abundance (log10)” value worked out at 0.0034.
As for “AGGTTCCCATGGACCGGTTTTCCCGGTAATCCGTATTTGTC (site AGGTTCCCTGA)”, the figure is 0; as for “AGGTTCCCATGGACCGGTTTTCCCGGTAATCCGTATTTGTC (site AGGTTCCCTTA)”, 0; as for “AGGTTCCCATGGACCGGTTTTCCCGGTAATCCGTATTTGTG (site AAGTTCCCTCA)”, 0.0108.
In the case of “AGGTTCCCATGGACCGGTTTTCCCGGTAATCCGTATTTGTG (site ACGTTCCCTCA)”, the “recombinant UMI read abundance (log10)” value was 0.0097.
Take “AGGTTCCCATGGACCGGTTTTCCCGGTAATCCGTATTTGTG (site AGATTCCCTCA)”: the “recombinant UMI read abundance (log10)” value was 0.438.
As for “AGGTTCCCATGGACCGGTTTTCCCGGTAATCCGTATTTGTG (site AGCTTCCCTCA)”, the figure is 0.0211; as for “AGGTTCCCATGGACCGGTTTTCCCGGTAATCCGTATTTGTG (site AGGATCCCTCA)”, 0.163.
As for “AGGTTCCCATGGACCGGTTTTCCCGGTAATCCGTATTTGTG (site AGGCTCCCTCA)”, the figure is 0.149.
Regarding “AGGTTCCCATGGACCGGTTTTCCCGGTAATCCGTATTTGTG (site AGGGTCCCTCA)”, the “recombinant UMI read abundance (log10)” value turned out to be 0.0158.
For the sequence “AGGTTCCCATGGACCGGTTTTCCCGGTAATCCGTATTTGTG (site AGGTACCCTCA)”, the “recombinant UMI read abundance (log10)” value was determined as 0.00814.
As for “AGGTTCCCATGGACCGGTTTTCCCGGTAATCCGTATTTGTG (site AGGTCCCCTCA)”, the figure is 0.019.
Then “AGGTTCCCATGGACCGGTTTTCCCGGTAATCCGTATTTGTG (site AGGTGCCCTCA)”, with 0.018; and “AGGTTCCCATGGACCGGTTTTCCCGGTAATCCGTATTTGTG (site AGGTTACCTCA)”, with 0.00985; and “AGGTTCCCATGGACCGGTTTTCCCGGTAATCCGTATTTGTG (site AGGTTCACTCA)”, with 0.0115.
As for “AGGTTCCCATGGACCGGTTTTCCCGGTAATCCGTATTTGTG (site AGGTTCCCTAA)”, the figure is 0.00843.
Take “AGGTTCCCATGGACCGGTTTTCCCGGTAATCCGTATTTGTG (site AGGTTCCCTCA)”: the “recombinant UMI read abundance (log10)” value is 0.152.
Then “AGGTTCCCATGGACCGGTTTTCCCGGTAATCCGTATTTGTG (site AGGTTCCCTCC)”, with 0.014; and “AGGTTCCCATGGACCGGTTTTCCCGGTAATCCGTATTTGTG (site AGGTTCCCTCG)”, with 0.328.
For “AGGTTCCCATGGACCGGTTTTCCCGGTAATCCGTATTTGTG (site AGGTTCCCTCT)”, the “recombinant UMI read abundance (log10)” value was found to be 0.0108.
As for “AGGTTCCCATGGACCGGTTTTCCCGGTAATCCGTATTTGTG (site AGGTTCCCTGA)”, the figure is 0; as for “AGGTTCCCATGGACCGGTTTTCCCGGTAATCCGTATTTGTG (site AGGTTCCCTTA)”, 0.
Then “AGGTTCCCATGGACCGGTTTTCCCGGTAATCCGTATTTGTG (site AGGTTCGCTCA)”, with 0.0252; and “AGGTTCCCATGGACCGGTTTTCCCGGTAATCCGTATTTGTG (site AGGTTCTCTCA)”, with 0.634; and “AGGTTCCCATGGACCGGTTTTCCCGGTAATCCGTATTTGTG (site AGGTTGCCTCA)”, with 0.0234.
As for “AGGTTCCCATGGACCGGTTTTCCCGGTAATCCGTATTTGTG (site AGGTTTCCTCA)”, the figure is 0.00972; as for “AGGTTCCCATGGACCGGTTTTCCCGGTAATCCGTATTTGTG (site AGTTTCCCTCA)”, 0.0518; as for “AGGTTCCCATGGACCGGTTTTCCCGGTAATCCGTATTTGTG (site ATGTTCCCTCA)”, 0.0101.
On to “AGGTTCCCATGGACCGGTTTTCCCGGTAATCCGTATTTGTG (site CGGTTCCCTCA)”, for which the “recombinant UMI read abundance (log10)” value turned out to be 0.0101.
As for “AGGTTCCCATGGACCGGTTTTCCCGGTAATCCGTATTTGTG (site GGGTTCCCTCA)”, the figure is 0.0086.
Consider “AGGTTCCCATGGACCGGTTTTCCCGGTAATCCGTATTTGTG (site TGGTTCCCTCA)”, for which the “recombinant UMI read abundance (log10)” value came to 0.00656.

The record behind these values is the supplement of paper PMC11208160.
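Note: IS621 bridge recombinase in Escherichia coli cells against a fixed T5 target plasmid.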
